These results are taken from BindingDB's records for doi:10.1021/acs.jmedchem.8b01153 (2019).

The target in experiment [1] is T1, Induced myeloid leukemia cell differentiation protein Mcl-1 (Homo sapiens, UniProt Q07820). Put plainly: Binding affinity to MCl-1 (unknown origin) assessed as dissociation rate constant for state one.
Experiment [2] addresses T1, Induced myeloid leukemia cell differentiation protein Mcl-1. Put plainly: Binding affinity to MCl-1 (unknown origin) assessed as dissociation rate constant for state two.

T1 sequence (Q07820 whole entry): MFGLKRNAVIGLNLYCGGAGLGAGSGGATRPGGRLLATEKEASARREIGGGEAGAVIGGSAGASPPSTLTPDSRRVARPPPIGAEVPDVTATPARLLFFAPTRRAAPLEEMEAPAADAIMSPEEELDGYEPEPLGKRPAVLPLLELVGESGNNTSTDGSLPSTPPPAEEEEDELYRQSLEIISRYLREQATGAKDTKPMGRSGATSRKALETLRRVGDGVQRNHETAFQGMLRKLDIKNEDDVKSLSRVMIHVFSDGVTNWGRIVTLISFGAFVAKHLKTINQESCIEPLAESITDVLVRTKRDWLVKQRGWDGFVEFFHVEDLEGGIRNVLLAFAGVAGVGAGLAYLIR

In general, koff refers to the first-order rate constant of dissociation. With `Cc1c(-c2cccc3c(CCCOc4cccc5ccccc45)c(C(=O)O)[nH]c23)c(COc2ccc(B(O)O)c(C=O)c2)nn1C` [7-(3-((4-Borono-3-formylphenoxy)methyl)-1,5-dimethyl-1Hpyrazol-4-yl)-3-(3-(naphthalen-1-yloxy)propyl)-1H-indole-2-carboxylic acid, 5], the figures for the koff in experiment [1] and in experiment [2] were 0.14 s⁻¹ and 0.018 s⁻¹, respectively.
Consider `Cc1c(-c2cccc3c(CCCOc4cccc5ccccc45)c(C(=O)O)n(C)c23)c(COc2ccc(B(O)O)c(C=O)c2)nn1C` [7-(3-((4-Borono-3-formylphenoxy)methyl)-1,5-dimethyl-1Hpyrazol-4-yl)-1-methyl-3-(3-(naphthalen-1-yloxy)propyl)-1H-indole-2-carboxylic acid, 11], for which the koff was 0.13 s⁻¹ in experiment [1] and 0.01 s⁻¹ in experiment [2].
